# Legend:
# subcutaneous RAG tumors [1] = test: Intra-lesional Rose Bengal chemotherapy of RAG tumors, immune competent mice (Example 8); format: in vivo, C57BL/6 mice; conditions: 10% solution intra-lesionally
# From the text: (§1) The immunologic basis for phototherapy-induced immunity is further illustrated by the following example which is not intended to limit the present invention. As an additional control, immune incompetent mice were implanted with subcutaneous tumors, treated using phototherapy, then challenged with a second dose of tumor cells. Since they are immune incompetent, the inventors believed that such mice would respond to phototherapy but fail to develop immunity to tumor cells. […] The rate of tumor development from such implantation was approximately 50% (14/28 mice developed tumors within five weeks of injection). The tumors were treated using intra-lesionally-injected Rose Bengal and green light photoactivation (1% Rose Bengal administered intra-lesionally at approximately 1 cc/cm^3 tumor volume, then illuminated 24 hours post administration using 532 nm laser light at 100 J/cm^2, 200 mW/cm^2).
# (§2) The chemotherapeutic and immunologic anti-tumoral effect for the prototypical halogenated xanthene, Rose Bengal, is further illustrated by the following example which is not intended to limit the present invention. Immune competent mice (C57BL/6 mice) and immune incompetent mice (BALB/C athymic nude mice) were implanted with subcutaneous RAG tumors, as previously described in Example 4. […]
# [2] = system: renal adenocarcinoma (RAG) tumors; test: Rose Bengal PDT of RAG tumors in nude mice, then tumor cell rechallenge (Example 4); format: in vivo, BALB/C athymic nude mice
# From the text: as §1
# [3] = system: multiple superficial mast cell tumors; test: Intra-lesional Rose Bengal chemotherapy in a dog with mast cell tumors (Example 7); format: in vivo
# Method: This chemotherapeutic and immunologic anti-tumoral effect for the prototypical halogenated xanthene, Rose Bengal, is illustrated by the following example which is not intended to limit the present invention. An adult, female dog with multiple superficial mast cell tumors was treated by injection of several cc of a 10% solution of Rose Bengal into each of several tumors (approximately one third of the total tumors were treated in this manner). […] Such a response in the treated tumors is consistent with the expected chemotherapeutic modality of the injected Rose Bengal, while the noted decrease in non-treated tumors represents an ongoing immune assault upon remaining remote tumor tissues.
# subcutaneous RAG tumors [4] = test: Intra-lesional Rose Bengal chemotherapy of RAG tumors, immune incompetent mice (Example 8); format: in vivo, BALB/C athymic nude mice; conditions: 10% solution intra-lesionally
# From the text: as §1, §2
# [5] = system: Murine hepatoma tumor cells (ATCC CRL-1830 Hepa 1-6); test: Rose Bengal PDT of left-flank tumor in mice with bilateral hepatoma tumors (Example 5); format: in vivo, C57BL/6 mice
# Method: The immunologic basis for phototherapy-induced immunity is further illustrated by the following example which is not intended to limit the present invention. Murine hepatoma tumor cells (10^6 cells, ATCC CRL-1830 Hepa 1-6) were injected subcutaneously into the left flank of immunocompetent mice (C57BL/6). Concurrent with this implantation, a smaller implantation was performed by injecting 5×10^5 tumor cells into the right flank of these mice. Tumors presented in both flanks within approximately 5-6 days of implantation. One group of mice were otherwise untreated and served as controls. […] A second group received illumination of the left-flank tumor with green light (532 nm laser light at 100 J/cm^2, 200 mW/cm^2). […] A third group received intra-lesional injection of the left-flank tumor with 50 μL of a 10% Rose Bengal solution (the right-flank tumor was not treated); the injected tumor was then illuminated 24 hours post drug administration using 532 nm laser light.
# [6] = system: recurrent malignant fibrous histocytoma; test: Rose Bengal injection plus 60Co irradiation of a dog's tumor (Example 1); format: in vivo
# Method: This anti-tumoral effect for the prototypical halogenated xanthene, Rose Bengal, is illustrated by the following example which is not intended to limit the present invention. An adult, female dog with a recurrent malignant fibrous histocytoma (an undifferentiated tumor that could be considered to be a poorly differentiated mesenchymal tumor), approximately 20 cc in volume, was treated by injection of approximately 7 cc of a 10% solution of Rose Bengal at several locations throughout the tumor volume. After a period of five days, an irradiation regimen consisting of 5 daily fractions (2 Gy each) of radiation from a ^60Co source was begun in order to effect phototherapy of the tumor. […] Such a response at 5 days is consistent with a chemotherapeutic modality of the injected Rose Bengal, while continued decrease in tumor mass at 19 days is consistent with a phototherapeutic modality related to tumor irradiation. […] This continued tumor regression is consistent with ongoing immune assault upon remaining tumor tissue.
smiles,measurement,setting,value
O=C([O-])c1c(Cl)c(Cl)c(Cl)c(Cl)c1-c1c2cc(I)c(=O)c(I)c-2oc2c(I)c([O-])c(I)cc12.[Na+].[Na+] [Rose Bengal],immediate effect of chemotherapeutic treatment on tumor,"subcutaneous RAG tumors [1]; approximately 1 cc/cm^3 tumor volume, immune competent mice",immediate tumor necrosis
same,cure rate,"subcutaneous RAG tumors [1]; immune competent mice (6/6 mice treated), upon follow-up",100%
same,effect of phototherapy on treated lesions,"[2]; 1% Rose Bengal intra-lesionally, approximately 1 cc/cm^3 tumor volume, 532 nm laser light 100 J/cm^2 24 hours post administration",selective acute necrosis of treated lesions
same,tumor development after challenge with second injection of RAG tumor cells,"[2]; seven complete responders, 10^4 tumor cells to opposite flank, five weeks following challenge (3/7 mice)",approximately 50%
same,side-effects in healthy tissue surrounding the treated tumors,[3]; all follow-up intervals,no significant side-effects in healthy tissue surrounding the treated tumors
same,systemic side effects,[3]; all follow-up intervals,nor any evidence of significant systemic side effects
same,"size of mast cell tumors, both treated and non-treated","[3]; several cc of 10% solution into approximately one third of the tumors, over subsequent three month period, no light",marked and progressive reduction in size
same,immediate effect of chemotherapeutic treatment on tumor,"subcutaneous RAG tumors [4]; approximately 1 cc/cm^3 tumor volume, immune incompetent mice",immediate tumor necrosis
same,cure rate,"subcutaneous RAG tumors [4]; immune incompetent mice (0/4 mice treated), upon follow-up",0%
same,eradication of the treated left-flank tumor,"[5]; 50 μL of 10% Rose Bengal solution intra-lesionally, 532 nm laser light 24 hours post administration",5/5
same,spontaneous rejection of the untreated right-flank tumor,"[5]; left-flank tumor treated with 10% Rose Bengal and 532 nm light, right-flank tumor not treated",5/5
same,tumor mass at follow-up,[6]; 12 weeks post injection,significant further reduction in tumor mass
same,tumor size after irradiation,"[6]; 19 days post injection, after 5 daily fractions (2 Gy each) 60Co",further measurable decrease in tumor size
same,side-effects in healthy tissue surrounding the tumor,[6]; all follow-up intervals,no significant side-effects in healthy tissue surrounding the tumor
same,tumor response before irradiation,"[6]; approximately 7 cc of 10% solution injected into tumor, five days post injection, immediately prior to irradiation",measurable decrease in tumor density along with significant edema and apparent necrosis of large sections of the tumor
same,final histologic examination for viable tumor tissue,[6]; approximately 12 months post-treatment,no evidence of viable tumor tissue was observed

# — patent publication US20020107281A1, “Phototherapeutic and chemotherapeutic immunotherapy against tumors” (Photogen, Inc., priority 2000, published 2002)
